Experimental data published in ChEMBL document CHEMBL1201862, “PubChem BioAssay data set” (2004).
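Five concentrations, 48 hours, 96-well plates. GI50 marks 50% less growth.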 Calls of active or inactive are those of the source. No stated cut-off is given here; in the data, active = GI50 up to about 1.1 µM and inactive = higher.

Key:
Test in all cases: NCI tumour cell line growth inhibition, 48 h
786-0 = tested on: 786-0
A498 = tested on: A498
A549 = tested on: A549
ACHN = tested on: ACHN
BT-549 = tested on: BT-549
CAKI-1 = tested on: CAKI-1
CCRF-CEM = tested on: CCRF-CEM
COLO 205 = tested on: COLO 205
DU-145 = tested on: DU-145
EKVX = tested on: EKVX
HCC 2998 = tested on: HCC 2998
HCT-116 = tested on: HCT-116
HCT-15 = tested on: HCT-15
HL-60 = tested on: HL-60
HOP-62 = tested on: HOP-62
HOP-92 = tested on: HOP-92
HT-29 = tested on: HT-29
Hs-578T = tested on: Hs-578T
IGROV-1 = tested on: IGROV-1
K562 = tested on: K562
KM12 = tested on: KM12
LOX IMVI = tested on: LOX IMVI
M14 = tested on: M14
MCF7 = tested on: MCF7
MDA-MB-231 = tested on: MDA-MB-231
MDA-MB-435 = tested on: MDA-MB-435
MDA-N = tested on: MDA-N
MOLT-4 = tested on: MOLT-4
Malme-3M = tested on: Malme-3M
NCI-H226 = tested on: NCI-H226
NCI-H23 = tested on: NCI-H23
NCI-H460 = tested on: NCI-H460
NCI-H522 = tested on: NCI-H522
NCI/ADR-RES = tested on: NCI/ADR-RES
OVCAR-8 = tested on: OVCAR-8
PC-3 = tested on: PC-3
RPMI-8226 = tested on: RPMI-8226
SF-268 = tested on: SF-268
SF-295 = tested on: SF-295
SF-539 = tested on: SF-539
SK-MEL-28 = tested on: SK-MEL-28
SK-MEL-2 = tested on: SK-MEL-2
SK-MEL-5 = tested on: SK-MEL-5
SK-OV-3 = tested on: SK-OV-3
SN12C = tested on: SN12C
SNB-19 = tested on: SNB-19
SNB-75 = tested on: SNB-75
SW-620 = tested on: SW-620
T47D = tested on: T47D
TK-10 = tested on: TK-10
U-251 = tested on: U-251
UACC-257 = tested on: UACC-257
UACC-62 = tested on: UACC-62
UO-31 = tested on: UO-31

Cc1c(C)c(C)c(Cn2[nH]c(=O)n(C)c2=O)c(C)c1C
GI50 (786-0): > 100 µM (inactive) | GI50 (A498): > 100 µM (inactive) | GI50 (A549): > 100 µM (inactive) | GI50 (ACHN): > 100 µM (inactive) | GI50 (BT-549): > 100 µM (inactive) | GI50 (CAKI-1): > 100 µM (inactive) | GI50 (CCRF-CEM): > 100 µM (inactive) | GI50 (COLO 205): > 100 µM (inactive) | GI50 (DU-145): > 100 µM (inactive) | GI50 (EKVX): > 100 µM (inactive) | GI50 (HCC 2998): > 100 µM (inactive) | GI50 (HCT-116): > 100 µM (inactive) | GI50 (HCT-15): > 100 µM | GI50 (HL-60): > 100 µM (inactive) | GI50 (HOP-62): > 100 µM (inactive) | GI50 (HOP-92): > 100 µM (inactive) | GI50 (HT-29): > 100 µM (inactive) | GI50 (Hs-578T): > 100 µM (inactive) | GI50 (IGROV-1): > 100 µM (inactive) | GI50 (K562): > 100 µM (inactive) | GI50 (KM12): > 100 µM (inactive) | GI50 (LOX IMVI): > 100 µM (inactive) | GI50 (M14): > 100 µM (inactive) | GI50 (MCF7): > 100 µM (inactive) | GI50 (MDA-MB-231): > 100 µM (inactive) | GI50 (MDA-MB-435): > 100 µM (inactive) | GI50 (MDA-N): > 100 µM (inactive) | GI50 (MOLT-4): > 100 µM (inactive) | GI50 (Malme-3M): > 100 µM (inactive) | GI50 (NCI-H226): > 100 µM (inactive) | GI50 (NCI-H23): > 100 µM (inactive) | GI50 (NCI-H460): > 100 µM (inactive) | GI50 (NCI-H522): > 100 µM (inactive) | GI50 (NCI/ADR-RES): > 100 µM (inactive) | GI50 (OVCAR-8): > 100 µM (inactive) | GI50 (PC-3): > 100 µM (inactive) | GI50 (RPMI-8226): > 100 µM (inactive) | GI50 (SF-268): > 100 µM (inactive) | GI50 (SF-295): > 100 µM (inactive) | GI50 (SF-539): > 100 µM (inactive) | GI50 (SK-MEL-28): > 100 µM (inactive) | GI50 (SK-MEL-2): > 100 µM (inactive) | GI50 (SK-MEL-5): > 100 µM (inactive) | GI50 (SK-OV-3): > 100 µM (inactive) | GI50 (SN12C): > 100 µM (inactive) | GI50 (SNB-19): > 100 µM (inactive) | GI50 (SNB-75): > 100 µM (inactive) | GI50 (SW-620): > 100 µM (inactive) | GI50 (T47D): > 100 µM (inactive) | GI50 (TK-10): > 100 µM (inactive) | GI50 (U-251): > 100 µM (inactive) | GI50 (UACC-257): > 100 µM (inactive) | GI50 (UACC-62): > 100 µM (inactive) | GI50 (UO-31): > 100 µM (inactive)
